The values below are quoted from earlier work in patent US4756910A, “Adriamycin-entrapping liposome preparation” (priority 1985, dated 1988).

Turning to `COc1cccc2c1C(=O)c1c(O)c3c(c(O)c1C2=O)C[C@@](O)(C(=O)CO)C[C@@H]3O[C@H]1C[C@H](N)[C@H](O)[C@H](C)O1` [Free adriamycin, Adriamycin], for the setting “background statement”, the “Cardiac toxicity (in words)” value is reported as “accumulative cardiac toxicity”. Moreover, the “Disappearance from the blood (in words)” value (in vivo, iv) is “rapidly disappears from the blood after intravenous administration”.
